The assay relates to Brain tumor (9 L gliosarcoma). The assay can be described thus: MRI (7T, 2D-RARE) T1/T2 measurement of excised subcutaneous tumor after ALA administration. The following applies: for Average T1 value / Average T2 value: ROI in excised tumor portion, ALA 100 mg/kg, 3 hours after administration, 7T-MRI, mean ± standard deviation.

For `NCC(=O)CCC(=O)O` [ALA, 5-aminolevulinic acid], the “Average T1 value” by setting is: (First average) 2004 ± 73 ms; (Second average) 2188 ± 210 ms. Moreover, the “Average T2 value” was determined as 146 ± 22 ms (First average) and 123 ± 5.7 ms (Second average). In addition, the “signal ratio (ALA administration group/control group) of T2 value” by setting is: (first measurement) “approximately 1.4 times”; (second measurement) “approximately 1.3 times”.

The values are drawn from US11633505B2, “Nuclear magnetic resonance diagnostic agent, and method for detecting or diagnosing state of cell, tissue or organ in subject using same” (National University Corporation Kumamoto University, priority 2012, dated 2023).
